This note sets out measurements from PubChem BioAssay (NCI).

The structures appear in SMILES notation.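 A five-concentration, 48-hour dose response in 96-well plates underlies each endpoint, interpolated linearly between surrounding concentrations. The concentration for 50% growth inhibition is given as GI50. TGI marks complete inhibition of growth.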

For one assay, the system named is MDA-MB-435. Kind of assay: inhibition of tumour cell growth, NCI panel, 48 h.
Consider `CC1(C)C2CCC(=O)C1CC2` (stereo not drawn), for which the TGI was over 100 µM. Turning to `OCCCCCNCc1cc2cc3c(cc2c2cc(OCc4ccccc4)ccc12)OCO3`, the GI50 is 1.66 µM and the TGI came out at 3.02 µM. Turning to `Cc1c2c(nn1-c1ccc(S(=O)(=O)/N=C3\SCCC(=O)N3c3ccccc3)cc1)-c1ccccc1CC2`, the GI50 is over 100 µM and the TGI is over 100 µM. Consider `C=C1C(=O)O[C@H]2[C@H]1CC/C(COC(=O)c1c[nH]c3ccccc13)=C\CC[C@@]1(C)O[C@@H]21`, for which the GI50 was 0.242 µM and the TGI was 0.654 µM. Molecule `O=C1NCC2(CCN(CCCC3(c4ccc(F)cc4)OCCO3)CC2)N1c1ccccc1` gave a TGI of over 100 µM.

Another assay deals with SF-295 CNS. Kind of assay: inhibition of tumour cell growth, NCI panel, 48 h.
The molecule `O=c1cc(-c2ccccc2)oc2cc(OCCCOc3ccc4c(=O)cc(-c5ccccc5)oc4c3)ccc12` returned a TGI of over 100 µM. Same read-out and setting: the figure for `CCOC(=O)c1cc2nc3ccccc3c(=O)n2c2ccccc12` is over 10 µM. Regarding `Clc1ccc(C(c2ccc(Cl)cc2)c2ccccn2)cc1`, the TGI came to 43.4 µM.

Turning to `CC(C)=Cc1cc(C(=O)Nc2ccc(Cl)c(Cl)c2)nc(N)n1`, the TGI was over 100 µM.

`Cn1cnc([N+](=O)[O-])c1Sc1nc2ccccc2[nH]1` registered a TGI of over 100 µM. In turn, `CCCCCCN(CCCCCC)C(=O)Cc1c2n(c3ccccc13)Cc1ccccc1-2` came in with a TGI of over 100 µM.

For the molecule `CCCCCCCCC/C=C1\CCC(CN2CCOCC2)C1=O` (stereo not drawn), the TGI amounted to 20 µM. Consider `CC(=O)OC1COC(n2ccc3cc(Br)c([N+](=O)[O-])cc32)C(OC(C)=O)C1OC(C)=O` (stereo not drawn), for which the TGI is 66.7 µM. Take `CCOC(=O)NC(=O)c1cn(CCCO)c(=O)[nH]c1=O`: the TGI was over 100 µM. `CN(C)c1nc(=Nc2ccc(N=c3nc(N(C)C)ss3)cc2)ss1` yielded a TGI of over 100 µM.

The molecule `O=[N+]([O-])C(/C=C(\Cl)n1nnc2ccccc21)=C(/Cl)n1nnc2ccccc21` displayed a TGI of over 100 µM. Turning to `CCc1cc(Cc2cc(CC)c(NC(=O)C(=O)Cc3ccccn3)c(CC)c2Cl)c(Cl)c(CC)c1NC(=O)C(=O)Cc1ccccn1`, the TGI was over 100 µM. Still for that read-out and setting: with `C[Si](C)(C)C1(Sc2ccccc2)SCCCS1` the figure was over 100 µM. `c1ccc(COc2cccc3ccc[n+](Cc4ccccc4)c23)cc1` yielded a TGI of 37.9 µM.

For `ClCc1cccc(Cn2cnc3ncnc(Cl)c32)c1`, the GI50 is 6.35 µM and the TGI turned out to be 19 µM. `CC1(C)C2CCC(=O)C1CC2` (stereo not drawn) showed a TGI of over 100 µM. `O=S1(=O)OCCOS(=O)(=O)C1Br` had a TGI of over 100 µM. With `CCOC(=O)C(=C=C=C(c1ccccc1)c1ccccc1)C(=O)OCC`, the TGI turned out to be 30.6 µM. For `CC1=CC(O)(c2ccc(-c3ccccc3Cl)cc2)OC1=O` (stereo not drawn), the TGI was over 100 µM. Regarding `OCCCCCNCc1cc2cc3c(cc2c2cc(OCc4ccccc4)ccc12)OCO3`, the GI50 was 1.59 µM and the TGI was determined as 3 µM.

The molecule `C/C(=N\NC(=S)NC(CCC(=O)O)C(=O)O)c1ccccn1` (stereo not drawn) came in with a TGI of over 100 µM. Same read-out and setting: the figure for `C#CC1(O)CCC2C3CCc4cc(Oc5nc(F)nc(-c6c7ccccc7c7sc8ccccc8n67)n5)ccc4C3CC[C@@]21C` (stereo partly drawn) is over 100 µM. On to `Cc1c2c(nn1-c1ccc(S(=O)(=O)/N=C3\SCCC(=O)N3c3ccccc3)cc1)-c1ccccc1CC2`, for which the GI50 was 75.7 µM and the TGI was over 100 µM. Turning to `Cc1ccc(NC(=O)c2cc3cc(N=Nc4ccccc4C(=O)O)ccc3oc2=O)cc1`, the TGI was over 100 µM. For `COc1ccc(S(=O)(=O)NNS(C)(=O)=O)cc1`, the TGI was over 100 µM. Still for that read-out and setting: the figure for `O=C(/C=C\c1ccc(Cl)c(Cl)c1)c1ccc(Cl)cc1Cl` is 47.1 µM.

For the molecule `C=C1C(=O)O[C@H]2[C@H]1CC/C(COC(=O)c1c[nH]c3ccccc13)=C\CC[C@@]1(C)O[C@@H]21`, the GI50 is 1.94 µM and the TGI was 4.47 µM.

Regarding `O=C1NCC2(CCN(CCCC3(c4ccc(F)cc4)OCCO3)CC2)N1c1ccccc1`, the TGI is over 100 µM. Regarding `COc1cc(/C=C2\CN(S(=O)(=O)c3ccccc3)C/C(=C\c3cc(CN4CCCC4)c(O)c(OC)c3)C2=O)cc(CN2CCCC2)c1O`, the GI50 was 1.55 µM and the TGI turned out to be 3.64 µM.

With `CC(=O)/C(=C\c1cccc([N+](=O)[O-])c1)C(=O)Nc1ccccc1C`, the TGI was over 100 µM.

Turning to `CCN1c2ccccc2C(C(SC)S(=O)(=O)c2ccc(C)cc2)c2c1[nH]c(=O)n(C)c2=O` (stereo not drawn), the TGI was over 100 µM. On the same count and under the same terms, the figure for `COC(OC)C(C)CC(=O)N(C)C` (stereo not drawn) is over 100 µM.

The next assay has as its system SK-MEL-2 melanoma. Kind of assay: inhibition of tumour cell growth, NCI panel, 48 h.
Molecule `O=c1cc(-c2ccccc2)oc2cc(OCCCOc3ccc4c(=O)cc(-c5ccccc5)oc4c3)ccc12` came in with a TGI of over 100 µM. `CCOC(=O)c1cc2nc3ccccc3c(=O)n2c2ccccc12` showed a TGI of over 10 µM. `Clc1ccc(C(c2ccc(Cl)cc2)c2ccccn2)cc1`: the TGI is 35 µM. Still for that read-out and setting: with `CC(C)=Cc1cc(C(=O)Nc2ccc(Cl)c(Cl)c2)nc(N)n1` the figure was over 100 µM; with `CCCCCCN(CCCCCC)C(=O)Cc1c2n(c3ccccc13)Cc1ccccc1-2`, over 100 µM. On the same count and under the same terms, the figure for `CCCCCCCCC/C=C1\CCC(CN2CCOCC2)C1=O` (stereo not drawn) is 14.6 µM. As for `CCOC(=O)NC(=O)c1cn(CCCO)c(=O)[nH]c1=O`, the TGI was over 100 µM. With `CN(C)c1nc(=Nc2ccc(N=c3nc(N(C)C)ss3)cc2)ss1`, the TGI was over 100 µM. The molecule `O=[N+]([O-])C(/C=C(\Cl)n1nnc2ccccc21)=C(/Cl)n1nnc2ccccc21` displayed a TGI of over 100 µM. In turn, `CCc1cc(Cc2cc(CC)c(NC(=O)C(=O)Cc3ccccn3)c(CC)c2Cl)c(Cl)c(CC)c1NC(=O)C(=O)Cc1ccccn1` showed a TGI of over 100 µM. The same measure, in the same setting: with `C[Si](C)(C)C1(Sc2ccccc2)SCCCS1` the figure was over 100 µM.

`c1ccc(COc2cccc3ccc[n+](Cc4ccccc4)c23)cc1` came in with a TGI of 20.3 µM. In the case of `ClCc1cccc(Cn2cnc3ncnc(Cl)c32)c1`, the GI50 was 5.76 µM and the TGI came out at 22.8 µM. Molecule `CC1(C)C2CCC(=O)C1CC2` (stereo not drawn) showed a TGI of over 100 µM. In the case of `O=S1(=O)OCCOS(=O)(=O)C1Br`, the TGI was over 100 µM. Still for that read-out and setting: the figure for `CCOC(=O)C(=C=C=C(c1ccccc1)c1ccccc1)C(=O)OCC` is 36.9 µM. On the same count and under the same terms, with `CC1=CC(O)(c2ccc(-c3ccccc3Cl)cc2)OC1=O` (stereo not drawn) the figure was over 100 µM.
